# Patent US9598387B2 (Southern Research Institute, priority 2012, dated 2017)
# How the values were obtained:
# [1] = biological target: human D2-long dopamine receptor (Homo sapiens (Human), UniProt P14416); test: Radioligand binding (125I-IABN competition), D2; conditions: HEK cell membranes expressing human D2-long
# Description: (§1) The affinities of the target compounds were determined using radioligand binding experiments. […] Competition curves were modeled for a single site. Data from competition dose-response curves were analyzed using Tablecurve program (Jandel). IC50 values were converted to equilibrium dissociation constants (Ki values) using the Cheng and Prusoff correction.
# [2] = biological target: human D3 dopamine receptor (Homo sapiens (Human), UniProt P35462); test: Radioligand binding (125I-IABN competition), D3; conditions: for Ki: 125I-IABN competition, HEK cell membranes expressing human D3; for D2/D3 (D3 selectivity ratio, D2 Ki/D3 Ki): calculated D2 Ki/D3 Ki
# Description: as §1
# human D2-long dopamine receptor, sequence (P14416 whole entry): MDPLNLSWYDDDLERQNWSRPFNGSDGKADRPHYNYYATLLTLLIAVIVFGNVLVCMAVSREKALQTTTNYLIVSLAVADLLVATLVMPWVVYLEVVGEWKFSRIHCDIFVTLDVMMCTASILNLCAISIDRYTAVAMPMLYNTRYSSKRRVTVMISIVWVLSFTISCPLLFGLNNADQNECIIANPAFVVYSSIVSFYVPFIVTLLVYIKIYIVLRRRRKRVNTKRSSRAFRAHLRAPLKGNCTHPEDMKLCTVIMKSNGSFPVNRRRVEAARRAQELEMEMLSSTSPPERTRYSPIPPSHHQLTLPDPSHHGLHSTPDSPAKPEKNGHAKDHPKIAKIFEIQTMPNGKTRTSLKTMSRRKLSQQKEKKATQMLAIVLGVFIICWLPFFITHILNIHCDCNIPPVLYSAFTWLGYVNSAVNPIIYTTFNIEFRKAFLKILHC
# human D3 dopamine receptor, sequence (P35462 whole entry): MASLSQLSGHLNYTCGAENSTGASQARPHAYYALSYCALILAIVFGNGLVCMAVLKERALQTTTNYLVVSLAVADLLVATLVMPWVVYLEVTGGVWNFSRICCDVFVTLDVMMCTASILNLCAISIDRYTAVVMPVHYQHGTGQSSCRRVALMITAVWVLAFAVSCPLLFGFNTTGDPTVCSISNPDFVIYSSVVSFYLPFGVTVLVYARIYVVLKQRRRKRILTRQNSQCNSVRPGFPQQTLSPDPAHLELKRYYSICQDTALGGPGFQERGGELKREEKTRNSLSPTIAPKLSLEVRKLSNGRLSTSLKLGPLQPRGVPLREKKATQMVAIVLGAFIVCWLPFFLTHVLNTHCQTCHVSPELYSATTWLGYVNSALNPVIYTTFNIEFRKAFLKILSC
SMILES,Ki [1],Ki [2],"D2/D3 (D3 selectivity ratio, D2 Ki/D3 Ki) [2]"
"CC(C)(C)c1nc(N2CCN(CCCCNC(=O)N3CCN(c4ccnc5ccccc45)CC3)CC2)cc(C(F)(F)F)n1 [Compound 34, N-(4-(4-(2-(tert-Butyl)-6-(trifluoromethyl)pyrimidin-4-yl)piperazin-1-yl)butyl)-4-(quinolin-4-yl)piperazine-1-carboxamide]",524 ± 42.2 nM,12.7 ± 2.5 nM,41
"CC(C)(C)c1nc(N2CCN(CCCCNC(=O)N3CCN(C4CC4)CC3)CC2)cc(C(F)(F)F)n1 [Compound 35, N-(4-(4-(2-(tert-Butyl)-6-(trifluoromethyl)pyrimidin-4-yl)piperazin-1-yl)butyl)-4-cyclopropylpiperazine-1-carboxamide]",331 ± 51.9 nM,12.8 ± 2.3 nM,26
"CC(C)(C)c1nc(N2CCN(CCCCNC(=O)N3CCN(Cc4ccccc4)CC3)CC2)cc(C(F)(F)F)n1 [Compound 36, 4-Benzyl-N-(4-(4-(2-(tert-butyl)-6-(trifluoromethyl)pyrimidin-4-yl)piperazin-1-yl)butyl)piperazine-1-carboxamide]",530 ± 45 nM,16.7 ± 4.4 nM,32
"CC(C)(C)c1nc(N2CCN(CCCCNC(=O)N3CCN(C(=O)c4ccccc4)CC3)CC2)cc(C(F)(F)F)n1 [Compound 37, 4-Benzoyl-N-(4-(4-(2-(tert-butyl)-6-(trifluoromethyl)pyrimidin-4-yl)piperazin-1-yl)butyl)piperazine-1-carboxamide]",998 ± 252 nM,29 ± 2.4 nM,34
"CC(C)(C)c1nc(N2CCN(CCCCNC(=O)N3CC(c4ccncc4)C3)CC2)cc(C(F)(F)F)n1 [Compound 38, N-(4-(4-(2-(tert-Butyl)-6-(trifluoromethyl)pyrimidin-4-yl)piperazin-1-yl)butyl)-3-(pyridin-4-yl)azetidine-1-carboxamide]",605 ± 62 nM,3.5 ± 0.7 nM,173
"CC(C)(C)c1nc(N2CCN(CCCCNC(=O)N3CCc4ccccc4C3)CC2)cc(C(F)(F)F)n1 [Compound 41, N-(4-(4-(2-(tert-Butyl)-6-(trifluoromethyl)pyrimidin-4-yl)piperazin-1-yl)butyl)-3,4-dihydroisoquinoline-2(1H)-carboxamide]",490 ± 70 nM,22.9 ± 5 nM,21
"CC(C)(C)c1nc(N2CCN(CCCCNC(=O)N3CCc4ccccc4CC3)CC2)cc(C(F)(F)F)n1 [Compound 42, N-(4-(4-(2-(tert-Butyl)-6-(trifluoromethyl)pyrimidin-4-yl)piperazin-1-yl)butyl)-4,5-dihydro-1H-benzo[d]azepine-3(2H)-carboxamide]",646 ± 1.5 nM,2.3 ± 0.3 nM,281
"CC(C)(C)c1nc(N2CCN(CCCCNC(=O)N3CCN(c4ccccc4-c4ccccc4)CC3)CC2)cc(C(F)(F)F)n1 [Compound 43, 4-([1,1′-Biphenyl]-2-yl)-N-(4-(4-(2-(tert-butyl)-6-(trifluoromethyl)pyrimidin-4-yl)piperazin-1-yl)butyl)piperazine-1-carboxamide]",1020 ± 75.6 nM,15 ± 3.1 nM,68
"CC(C)(C)c1nc(N2CCN(CCCCNC(=O)N3CCN(c4cccc(-c5ccccc5)c4)CC3)CC2)cc(C(F)(F)F)n1 [Compound 44, 4-([1,1′-Biphenyl]-3-yl)-N-(4-(4-(2-(tert-butyl)-6-(trifluoromethyl)pyrimidin-4-yl)piperazin-1-yl)butyl)piperazine-1-carboxamide]",1110 ± 104 nM,49.3 ± 11.2 nM,22
"CC(C)(C)c1nc(N2CCN(CCCCNC(=O)N3CCN(c4ccc(-c5ccccc5)cc4)CC3)CC2)cc(C(F)(F)F)n1 [Compound 45, 4-([1,1′-Biphenyl]-4-yl)-N-(4-(4-(2-(tert-butyl)-6-(trifluoromethyl)pyrimidin-4-yl)piperazin-1-yl)butyl)piperazine-1-carboxamide]",621 ± 143 nM,25.1 ± 5.5 nM,25
"Cc1cc(N2CCN(CCCCNC(=O)N3CCN(S(=O)(=O)c4ccccc4)CC3)CC2)nc(C(C)(C)C)n1 [Compound 46, N-(4-(4-(2-(tert-Butyl)-6-methylpyrimidin-4-yl)piperazin-1-yl)butyl)-4-(phenylsulfonyl)piperazine-1-carboxamide]",906 ± 169 nM,31.9 ± 7.2 nM,28
"CC(C)(C)c1nc(N2CCN(CCCCNC(=O)N3CCC(O)(c4ccccc4)CC3)CC2)cc(C(F)(F)F)n1 [Compound 49, N-(4-(4-(2-(tert-Butyl)-6-(trifluoromethyl)pyrimidin-4-yl)piperazin-1-yl)butyl)-4-hydroxy-4-phenylpiperidine-1-carboxamide]",1270 ± 291 nM,27 ± 3.9 nM,47
"CC(C)(C)c1nc(N2CCN(CCCCNC(=O)N3CCC(Cc4ccccc4)CC3)CC2)cc(C(F)(F)F)n1 [Compound 50, 4-Benzyl-N-(4-(4-(2-(tert-butyl)-6-(trifluoromethyl)pyrimidin-4-yl)piperazin-1-yl)butyl)piperidine-1-carboxamide]",603 ± 104 nM,18.4 ± 2.6 nM,33
"CC(C)(C)c1nc(N2CCN(CCCCNC(=O)N3CCC(Oc4ccccc4)CC3)CC2)cc(C(F)(F)F)n1 [Compound 51, N-(4-(4-(2-(tert-Butyl)-6-(trifluoromethyl)pyrimidin-4-yl)piperazin-1-yl)butyl)-4-phenoxypiperidine-1-carboxamide]",1290 ± 248 nM,44.1 ± 8.1 nM,29
"CC(C)(C)c1nc(N2CCN(CCCCNC(=O)N3CCC(n4c(=O)[nH]c5ccccc54)CC3)CC2)cc(C(F)(F)F)n1 [Compound 53, N-(4-(4-(2-(tert-Butyl)-6-(trifluoromethyl)pyrimidin-4-yl)piperazin-1-yl)butyl)-4-(2-oxo-2,3-dihydro-1H-benzo[d]imidazol-1-yl)piperidine-1-carboxamide]",713 ± 78.3 nM,35.2 ± 8.2 nM,20
"CC(C)(C)c1nc(N2CCN(CCCCNC(=O)N3CCc4[nH]c5ccc(C#N)cc5c4C3)CC2)cc(C(F)(F)F)n1 [Compound 54, N-(4-(4-(2-(tert-Butyl)-6-(trifluoromethyl)pyrimidin-4-yl)piperazin-1-yl)butyl)-8-cyano-3,4-dihydro-1H-pyrido[4,3-b]indole-2(5H)-carboxamide]",1050 ± 149 nM,40.3 ± 7.2 nM,26
"CC(C)(C)c1cc(N2CCN(CCCCNC(=O)N3CCc4[nH]c5ccccc5c4C3)CC2)nc(C(C)(C)C)n1 [Compound 56, N-(4-(4-(2,6-Di-tert-butylpyrimidin-4-yl)piperazin-1-yl)butyl)-3,4-dihydro-1H-pyrido[4,3-b]indole-2(5H)-carboxamide]",308 ± 29.9 nM,9.5 ± 1.7 nM,33
"CC(C)(C)c1nc(N2CCN(CCCCNC(=O)N3CCN(c4ccc(Cl)cc4)CC3)CC2)cc(C(F)(F)F)n1 [Compound 57, N-(4-(4-(2-(tert-Butyl)-6-(trifluoromethyl)pyrimidin-4-yl)piperazin-1-yl)butyl)-4-(4-chlorophenyl)piperazine-1-carboxamide]",644 ± 6.6 nM,35.5 ± 7.2 nM,18
"Cc1ccccc1N1CCN(C(=O)NCCCCN2CCN(c3cc(C(F)(F)F)nc(C(C)(C)C)n3)CC2)CC1 [Compound 58, N-(4-(4-(2-(tert-Butyl)-6-(trifluoromethyl)pyrimidin-4-yl)piperazin-1-yl)butyl)-4-(o-tolyl)piperazine-1-carboxamide]",789 ± 192 nM,70.6 ± 14.8 nM,11
"CC(C)(C)c1nc(N2CCN(CCCCNC(=O)N3CCN(c4ccc(C#N)cc4)CC3)CC2)cc(C(F)(F)F)n1 [Compound 59, N-(4-(4-(2-(tert-Butyl)-6-(trifluoromethyl)pyrimidin-4-yl)piperazin-1-yl)butyl)-4-(4-cyanophenyl)piperazine-1-carboxamide]",342 ± 22 nM,19.4 ± 4.1 nM,18
"CC(C)(C)c1nc(N2CCN(CCCCNC(=O)N3CCN(c4ccc(Cl)c(Cl)c4)CC3)CC2)cc(C(F)(F)F)n1 [Compound 60, N-(4-(4-(2-(tert-Butyl)-6-(trifluoromethyl)pyrimidin-4-yl)piperazin-1-yl)butyl)-4-(3,4-dichlorophenyl)piperazine-1-carboxamide]",570 ± 119 nM,46.6 ± 9.1 nM,12
"CC(C)(C)c1nc(N2CCN(CCCCNC(=O)N3CCN(c4cc(C#N)cc(C(F)(F)F)c4)CC3)CC2)cc(C(F)(F)F)n1 [Compound 61, N-(4-(4-(2-(tert-Butyl)-6-(trifluoromethyl)pyrimidin-4-yl)piperazin-1-yl)butyl)-4-(3-cyano-5-(trifluoromethyl)phenyl)piperazine-1-carboxamide]",896 ± 193 nM,48 ± 10.8 nM,19
"CC(C)(C)c1nc(N2CCN(CCCCNC(=O)N3CCN(c4cc(C(F)(F)F)nc(C(C)(C)C)n4)CC3)CC2)cc(C(F)(F)F)n1 [Compound 62, 4-(2-(tert-Butyl)-6-(trifluoromethyl)pyrimidin-4-yl)-N-(4-(4-(2-(tert-butyl)-6-(trifluoromethyl)pyrimidin-4-yl)piperazin-1-yl)butyl)piperazine-1-carboxamide]",1520 ± 344 nM,106 ± 5.5 nM,14
"CC(C)(C)c1nc(N2CCN(CCCCNC(=O)N3CCN(c4ccnc5cc(Cl)ccc45)CC3)CC2)cc(C(F)(F)F)n1 [Compound 63, N-(4-(4-(2-(tert-Butyl)-6-(trifluoromethyl)pyrimidin-4-yl)piperazin-1-yl)butyl)-4-(7-chloroquinolin-4-yl)piperazine-1-carboxamide]",359 ± 45.8 nM,19.2 ± 3.6 nM,19
